Test results: patent US20250313588A1, “NOVEL PYRROLOPYRIMIDINONE CARBOXAMIDE COMPOUND FOR INHIBITING CDK, STEREOISOMER THEREOF OR PHARMACEUTICALLY ACCEPTABLE SALT THEREOF, AND PHARMACEUTICAL COMPOSITION FOR TREATING CANCER, COMPRISING SAME AS ACTIVE INGREDIENT” (Seoul National University R&DB Foundation, priority 2022, published 2025)

What was measured:
[1] = Plasma metabolic stability assay (human plasma); conditions: for half-life at 5 μM: human, plasma; for plasma stability (in words): summary of Table 1, 'in each group'
Method: (§4) DMSO was used as a diluent to prepare stock solutions of a test substance and a positive control at a concentration of 10 mM. The positive control stock solution was then diluted with 70% acetonitrile to a working concentration of 0.2 mM, and then the test substance stock solution was diluted with 70% acetonitrile to a working concentration of 1 mM. A quench reagent consisted of acetonitrile containing tolbutamide and propranolol (provided as an internal standard).
(§5) Positive control and test substance working solutions were spiked into plasma at a concentration of 1 μM and 5 μM, respectively. A 0-min sample was prepared by adding an 80 μL aliquot of each incubation mixture to 320 μL of the quench reagent to precipitate proteins. The mixture was incubated in a water bath at 37° C. with gentle shaking. Aliquots of 80 μL of each mixture were removed and placed in a clean 96-well plate containing 320 μL of the quench reagent to precipitate proteins at 15, 30, 45, and 60 min and centrifuged (5000×g, 15 minutes). 100 μL of the supernatant was placed in a 96-well assay plate to which 200 μL of ultrapure water had been added in advance, and analyzed by LC-MS/MS.

[2] = Plasma metabolic stability assay (mouse plasma)
Method: as §4, §5

Hep3B cells = assay: Cell colony forming assay, Hep3B; format: cell-based; conditions: 1 μM and 3 μM for 12 hours, 7 to 14 days, compared to Y102 or SNS-032
Method: (§1) To examine the anticancer efficacy of Y106 and Y108 in vitro, a cell colony formation assay was performed in hepatocellular carcinoma cell lines Huh-7 and Hep3B cells.
(§2) 500 cells were seeded into 6-well plates, and then treated with Y102, Y106,Y108, or SNS-032 at 1 μM and 3 μM for 12 hours, the medium was then replaced with fresh medium, and after 7 to 14 days, the cells were stained with 20% methanol+0.5% Crystal Violet for colony staining, and the number of cells was counted for quantitative analysis.

[3] = test system: Huh-7 cells, hepatocellular carcinoma cell line; assay: Anticancer efficacy in mouse model transplanted with Huh-7 cells; format: in vivo, nude mice; conditions: Huh-7 xenograft; for changes in cancer growth: 20 mg/kg oral (SNS-032 intraperitoneal), five times a week for two weeks, compared to Y102 and SNS-032 groups; for weight of the extracted cancer: day 14
Method: (§3) To evaluate in vivo efficacy, 1×10^7 Huh-7 cells were transplanted into the right calves of nude mice to form cancer tissue, and then the anticancer efficacy of the new compositions Y106 and Y108 was compared with that of an existing CDK inhibitor Y102 or SNS-032.
The dose was the same for all mice (20 mg/kg), the vehicle, Y102, Y106, and Y108 were administered orally, and only SNS-032 was administered intraperitoneally. These were administered five times a week for two weeks, the size was measured twice a week using calipers to measure the changes in cancer growth and the mouse body weight for 14 days, and on day 14, the cancer tissue was removed to confirm the size and weight thereof.

Huh-7 cells = assay: Cell colony forming assay, Huh-7; format: cell-based; conditions: Huh-7, 1 μM and 3 μM for 12 hours, 7 to 14 days; compared to Y102 or SNS-032
Method: as §1, §2

[4] = test system: A549 cells, non-small cell lung cancer cell line; assay: Anticancer efficacy in mouse model transplanted with A549 cells; format: in vivo, nude mice; conditions: A549 xenograft; for changes in cancer growth: 20 mg/kg oral (SNS-032 intraperitoneal), administered for five days, compared to Y102 and SNS-032 groups; for changes in cancer growth / changes in mouse body weight: 25 days; for changes in mouse body weight / weight of the extracted cancer: 20 mg/kg; for weight of the extracted cancer: day 25
Method: as §3, with “efficacy in a mouse model transplanted with A549 cells, a non-small cell lung cancer cell line, 1×10^6 A549” for “efficacy, 1×10^7 Huh-7”
The dose was the same for all mice (20 mg/kg), the vehicle, Y102, Y106, and Y108 were administered orally, and only SNS-032 was administered intraperitoneally. These were administered for five days, the size was measured twice a week using calipers to measure the changes in cancer growth and the mouse body weight for 25 days, and on day 25, the cancer tissue was removed to confirm the size and weight thereof.

[5] = test system: Hep3B cells, hepatocellular carcinoma cell line; assay: Anticancer efficacy in mouse model transplanted with Hep3B cells; format: in vivo, nude mice; conditions: Hep3B xenograft; for changes in cancer growth: 20 mg/kg oral (SNS-032 intraperitoneal), compared to Y102 and SNS-032 groups; for changes in cancer growth / changes in mouse body weight: 27 days; for changes in mouse body weight / weight of the extracted cancer: 20 mg/kg; for weight of the extracted cancer: day 27
Excerpt: as §3, with “efficacy using Hep3B cells, another hepatocellular carcinoma cell line, 3×10^6 Hep3B” for “efficacy, 1×10^7 Huh-7”
The dosage, administration schedule, and administration route were applied in the same manner as in the method performed in the mouse model transplanted with Huh-7 cells in Example 3. After administration of the new compositions and the existing CDK inhibitors, changes in cancer growth and mouse body weight were measured for 27 days, and then on day 27, the cancer tissues were removed to confirm the size and weight thereof.

[6] = plasma
Method: as §4, §5

[7] = plasma; remark: listed apart in the source
Method: as §4, §5

CCC(C)(C)C(=O)OC[C@@H]1O[C@H](n2cnc(N)c3c(C(N)=O)c(Br)nc2-3)[C@@H](O)[C@@H]1O [Compound Y107, ((2S,3S,4S,5S)-5-(4-amino-6-bromo-5-carbamoyl-1H-pyrrolo[2,3-d]pyrimidin-1-yl)-3,4-dihydroxytetrahydrofuran-2-yl)methyl 2,2-dimethylbutanoate]
half-life at 5 μM [1]: 26.6 ± 4.33 min | half-life at 5 μM [2]: 6.91 ± 0.11 min

CC(C)C(=O)OC[C@@H]1O[C@H](n2cnc(N)c3c(C(N)=O)c(Br)nc2-3)[C@@H](O)[C@@H]1OC(=O)C(C)C [Compound Y105, (2S,3S,4S,5S)-5-(4-amino-6-bromo-5-carbamoyl-1H-pyrrolo[2,3-d]pyrimidin-1-yl)-4-hydroxy-2-((isobutyryloxy)methyl)tetrahydrofuran-3-yl isobutyrate]
half-life at 5 μM [1]: 20.5 ± 0.34 min | half-life at 5 μM [2]: 2.67 ± 0.2 min

NC(=O)c1c(Br)nc2n([C@H]3O[C@@H](COC(=O)C45CC6CC(CC(C6)C4)C5)C(O)[C@H]3O)cnc(N)c1-2 (stereo partly drawn) [Compound Y109, ((2S,3S,4S,5S)-5-(4-amino-6-bromo-5-carbamoyl-1H-pyrrolo[2,3-d]pyrimidin-1-yl)-3,4-dihydroxytetrahydrofuran-2-yl)methyl(3S,5S,7S)-adamantane-1-carboxylate]
half-life at 5 μM [1]: 280 ± 3.06 min | half-life at 5 μM [2]: 7.77 ± 0.13 min

CC1CC(OC(=O)C(O)c2ccccc2)CC(C)(C)N1C (stereo not drawn) [Eucatropin, reference compound]
half-life at 5 μM [1]: 16.7 ± 0.38 min | half-life at 5 μM [2]: 32.6 ± 4.81 min

CC(C)(C)C(=O)OC[C@@H]1O[C@H](n2cnc(N)c3c(C(N)=O)c(Br)nc2-3)[C@@H](O)[C@@H]1OC(=O)C(C)(C)C [Compound Y108, (2S,3S,4S,5S)-5-(4-amino-6-bromo-5-carbamoyl-1H-pyrrolo[2,3-d]pyrimidin-1-yl)-4-hydroxy-2-((pivaloyloxy)methyl)tetrahydrofuran-3-yl pivalate]
colony formation (Hep3B cells): remarkably reduced | half-life at 5 μM [1]: 700 ± 42.5 min | plasma stability (in words) [1]: highest stability | changes in cancer growth ([3]; 14 days): significantly inhibited cancer growth | weight of the extracted cancer ([3]; 20 mg/kg): least amount of cancer tissue | colony formation (Huh-7 cells): remarkably reduced | changes in cancer growth [4]: inhibited cancer growth more clearly | changes in mouse body weight [4]: no significant difference | weight of the extracted cancer [4]: least amount of cancer tissue | changes in cancer growth [5]: inhibited cancer growth more effectively | changes in mouse body weight [5]: no significant difference | weight of the extracted cancer [5]: least amount of cancer tissue | half-life at 5 μM [2]: 7.25 ± 0.01 min

Ibulocydine
T1/2(min) Mouse [6]: 2.85 ± 0.02 min | T1/2(min) Human [7]: 4.57 ± 0.09 min

CCC(C)(C)C(=O)OC[C@@H]1O[C@H](n2cnc(N)c3c(C(N)=O)c(Br)nc2-3)[C@@H](O)[C@@H]1OC(=O)C(C)(C)CC [Compound Y106, (2S,3S,4S,5S)-5-(4-amino-6-bromo-5-carbamoyl-1H-pyrrolo[2,3-d]pyrimidin-1-yl)-2-(((2,2-dimethylbutanoyl)oxy)methyl)-4-hydroxytetrahydrofuran-3-yl 2,2-dimethylbutanoate]
colony formation (Hep3B cells): remarkably reduced | half-life at 5 μM [1]: > 720 min | plasma stability (in words) [1]: highest stability | changes in cancer growth ([3]; 14 days): significantly inhibited cancer growth | weight of the extracted cancer ([3]; 20 mg/kg): least amount of cancer tissue | colony formation (Huh-7 cells): remarkably reduced | changes in cancer growth [4]: inhibited cancer growth more clearly | changes in mouse body weight [4]: no significant difference | weight of the extracted cancer [4]: least amount of cancer tissue | changes in cancer growth [5]: inhibited cancer growth more effectively | changes in mouse body weight [5]: no significant difference | weight of the extracted cancer [5]: least amount of cancer tissue | half-life at 5 μM [2]: 7.1 ± 0.07 min

CC(C)(C)c1cnc(CSc2cnc(NC(=O)C3CCNCC3)s2)o1 [SNS-032, reference compound]
mouse body weight ([3]; 20 mg/kg, 14 days): slightly reduced | changes in mouse body weight [4]: no significant difference | changes in mouse body weight [5]: no significant difference
